Test results published in patent US20170281587A1, “ERYTHROCYTE FUNCTION IMPROVING AGENT” (Glico Nutrition Co., Ltd., priority 2014, published 2017).
Values joined by “and” are separate entries in the source; they are usually repeats but may differ in a detail not shown here. Equal entries are not always repeated.

Legend:
red blood cells [1] = details: cited from earlier work
red blood cells [2] = details: in vivo, po
Description: In this test, paprika carotenoids rich in carotenoids having 3,6-epoxy end groups or 5-membered ring end groups were orally administered to an adult, and cucurbitaxanthin A, capsanthin, capsorubin, and capsanthin 3,6-epoxide were evaluated for their ability to migrate into red blood cells. A specific testing method was as described below.
Initially, 15 g of a paprika pigment emulsified preparation (PapriX; total amount of carotenoids: 10 mg/g) from Glico Nutrition Co., Ltd., 30 g of dextrin, 70 g of sugar, and 3 g of citric acid were dissolved in 1 L of water to prepare a test beverage containing the paprika carotenoids. The paprika pigment emulsified preparation contained 0.053 mass % of cucurbitaxanthin A, 0.40 mass % of capsanthin, 0.021 mass % of capsorubin, and 0.034 mass % of capsanthin 3,6-epoxide, and the test beverage contained 0.00079 mass % of cucurbitaxanthin A, 0.0060 mass % of capsanthin, 0.00031 mass % of capsorubin, and 0.00051 mass % of capsanthin 3,6-epoxide.
Before the beginning of the ingestion and after 4 weeks from the ingestion, blood was collected to obtain blood samples. Red blood cells were separated from the obtained blood samples, and the carotenoids (capsanthin 3,6-epoxide, cucurbitaxanthin A, capsanthin, and capsorubin) present in red blood cells were quantified by HPLC.

[3] = 30 healthy males and females, oral administration for 12 weeks

Compound | astaxanthin in the red blood cells (red blood cells [1]; [3]) | lipid peroxides in the red blood cells (red blood cells [1]; [3]) | migration ratio into red blood cells (red blood cells [1]; day 84 after the ingestion, calculated from literature disclosure) | ability to migrate into red blood cells (migration ratio into red blood cells) (red blood cells [2])
CC1=C(/C=C/C(C)=C/C=C/C(C)=C/C=C/C=C(C)/C=C/C=C(C)/C=C/C2=C(C)C(=O)[C@@H](O)CC2(C)C)C(C)(C)C[C@H](O)C1=O [astaxanthin] | an increase in astaxanthin | a decrease in lipid peroxides | 0.0089% and 0.0057% | –
CC(/C=C/C=C(C)/C=C/C(=O)[C@]1(C)C[C@@H](O)CC1(C)C)=C\C=C\C=C(C)\C=C\C=C(C)\C=C\[C@@]12O[C@@H](CC1(C)C)C[C@@]2(C)O [capsanthin 3,6-epoxide] | – | – | – | little migration into red blood cells
CC1=C(/C=C/C(C)=C/C=C/C(C)=C/C=C/C=C(C)/C=C/C=C(C)/C=C/C(=O)[C@]2(C)C[C@@H](O)CC2(C)C)C(C)(C)C[C@H](O)C1 [capsanthin] | – | – | – | little migration into red blood cells
CC(/C=C/C=C(C)/C=C/C(=O)[C@]1(C)C[C@@H](O)CC1(C)C)=C\C=C\C=C(C)\C=C\C=C(C)\C=C\C(=O)[C@]1(C)C[C@@H](O)CC1(C)C [capsorubin] | – | – | – | little migration into red blood cells
CC1=C(/C=C/C(C)=C/C=C/C(C)=C/C=C/C=C(C)/C=C/C=C(C)/C=C/[C@@]23O[C@@H](CC2(C)C)C[C@@]3(C)O)C(C)(C)C[C@H](O)C1 [cucurbitaxanthin A, (3S,3′R,5R,6R)-3,6-epoxy-5,6-dihydro-β,β-carotene-3′,5-diol] | – | – | – | markedly high ability to migrate into red blood cells
